{
  "source": "patent US10590462B2",
  "about": "“Probes and assays for measuring E3 ligase activity” (NORTHWESTERN UNIVERSITY, priority 2014, dated 2020)",
  "tested_on": "Rsp5 HECT domain",
  "test": "UbiFlu real-time fluorescence polarization kinetics with Rsp5 HECT domain",
  "type": "biochemical, S. cerevisiae",
  "conditions": "in the presence of 8× SFlu",
  "data": [
    {"compound": "O=C1OC2(c3ccc(O)cc3Oc3cc(O)ccc32)c2ccc(NC(=S)NCCS)cc21", "note": "[SFlu]", "values": [
      {"measurement": "inhibition of UbiFlu consumption", "result": "no inhibition"}
    ]}
  ]
}
